From US20100028360A1, “METHODS FOR THE MODULATION OF BRAIN PROGESTAGEN SIGNALING IN THE PREVENTION AND TREATMENT OF NEUROLOGICAL DISORDERS AND NEURODEGENERATIVE DISEASES” (priority 2008, published 2010)
“Also recorded” adds a separate entry of the source. No end group written: not given here.

Assays:
[1] = test system: Tg2576 mice carrying the Swedish AβPP mutation; conditions: aged Tg2576 transgenic mice; cited from earlier work
hESC [2] = assay: hESC cell proliferation, trypan blue assay; type: cell-based, human; conditions: E2 10 nM, P4 2 μM or E2+P4, 6 d; compared to untreated control cells
Procedure: (§1) FIG. 1. P4 differentiates hESC into neuroectoderm. (a) hESC were grown in TESR1 media—Li in the presence of E2 (10 nM), P4 (2 μM) or E2 (10 nM)+P4 (2 μM) for 6 d and cell proliferation measured using the trypan blue assay. Results are expressed as mean±SEM, n=3 (*p<0.05, **p<0.005 compared to 6 d control). (b) Equal amounts of protein from cell lysates of hESC treated for 9 d as described above were analyzed by immunoblot using a monoclonal antibody against nestin (clone 10C2; Chemicon, Calif., USA). (c) hESC were cultured for 4 d, enzymatically lifted and placed into EB media (containing serum) and rocked gently for an additional 4 d prior to being placed in one of two neural induction medias for an additional 11 days, where P4 was either absence or present. During this transition from EB to rosettes, colony structures treated with P4 also were treated with a PR antagonist (RU-486; 20 μM) or ER antagonist (ICI 182,780) for 11 d. At 19 d, morphological observation and molecular analysis were performed. […] (ii) hESC structure in the absence of P4. (iii) PR antagonist treated rosettes (RU-486, 20 μM). (iv) ER antagonist (ICI 182,780). (d) Equal amounts of protein from cell lysates of the above structures were analyzed by immunoblot with the monoclonal antibody against human nestin.

nestin = nestin immunoblot of hESC / EB-rosette structure lysates; type: cell-based, human
Procedure: as §1

hESC [3] = assay: EB and neuroectodermal rosette/NPC formation from hESC, morphological observation; type: cell-based, human; conditions: neural induction media with P4, antagonist for 11 d (RU-486 20 μM); observed at 19 d
Procedure: as §1

rat hippocampal slices = assay: extracellular field responses in CA1 of isolated hippocampal slices; type: cell-based; conditions: 50 nM
Procedure: FIG. 3. GnRH1 increases neuronal excitability in hippocampal slices from old rats. Typical traces from hippocampal slice cut transversely at 500 μm thickness from 37 day (A) and 19 month (B) old male rats. Orthodromic extracellular field responses were recorded in the cell body layer of the CA1. Responses were evoked by a bipolar electrode with a constant current stimuli (50 μs duration) delivered every 30 s by electrodes placed in the schaeffer collaterals. 50 nM GnRH1 was used. Mean values are shown in C., n=5 slices each for young rats and n=3 slices each for old rats. Slices from two young and two old animals were used. Superfusion of human GnRH evoked a 50% increase in the maximum amplitude of population spikes in hippocampal slices from old rats compared to controls (FIGS. 3B, C).

Molecule: CCNC(=O)[C@@H]1CCCN1C(=O)[C@H](CCCNC(=N)N)NC(=O)[C@H](CC(C)C)NC(=O)[C@@H](CC(C)C)NC(=O)[C@H](Cc1ccc(O)cc1)NC(=O)[C@H](CO)NC(=O)[C@H](Cc1c[nH]c2ccccc12)NC(=O)[C@H](Cc1c[nH]cn1)NC(=O)[C@@H]1CCC(=O)N1 [leuprolide acetate]
- Aβ deposition [1]: halts Aβ deposition
- cognitive performance [1]: improves cognitive performance

Molecule: CC(=O)[C@H]1CC[C@H]2[C@@H]3CCC4=CC(=O)CC[C@]4(C)[C@H]3CC[C@]12C [P4, pregn-4-ene-3,20-dione]
- decrease in the rate of hESC proliferation (hESC [2]): 29%
- nestin expression in hESC (nestin; hESC treated for 9 d, E2 10 nM, P4 2 μM, immunoblot): increased the expression of the neuroectodermal marker nestin; also recorded: induces nestin expression
- EB and neuroectodermal rosette/NPC formation (hESC [3]): a minimum of three rosette structures

Molecule: C[C@]12CC[C@@H]3c4ccc(O)cc4CC[C@H]3[C@@H]1CC[C@@H]2O [E2, estradiol]
- decrease in the rate of hESC proliferation (hESC [2]): 16%

Molecule: GnRH1: human gonadotropin releasing hormone, superfused at 50 nM (QHWSYGLRPG; ends and bridges not checked; UniProt P01148 24-33, looked up)
- increase in the maximum amplitude of population spikes compared to controls (rat hippocampal slices; hippocampal slices from old (19 month old) rats): 50%
- increase in neuronal excitability compared to controls (rat hippocampal slices; hippocampal slices from young (37 day old) rats): 22%
- maximum amplitude of field responses, cell body layer of CA1 (rat hippocampal slices; old rats, n=3, control 2.54±0.18 mV, p=0.05): 3.99±0.84 mV
- maximum amplitude of field responses, cell body layer of CA1 (rat hippocampal slices; young rats, n=5, control 7.0±1.4 mV, p=0.548): 7.9±2.7 mV

Molecule: C[C@]12CC[C@@H]3c4ccc(O)cc4C[C@@H](CCCCCCCCC[S+]([O-])CCCC(F)(F)C(F)(F)F)[C@H]3[C@@H]1CC[C@@H]2O (stereo partly drawn) [ICI 182,780]
- nestin expression in antagonist treated structures (nestin; antagonist for 11 d (RU-486 20 μM), immunoblot at 19 d): absence of nestin
- EB and neuroectodermal rosette/NPC formation (hESC [3]): No rosettes were detected
